# In patent US20110039825A1, “LIGANDS OF ALPHA-ADRENOCEPTORS, DOPAMINE, HISTAMINE, IMIDAZOLINE AND SEROTONIN RECEPTORS AND THEIR USE” (Alla Chem, LLC, priority 2007, published 2011):
# Columns and labels:
# adrenergic receptor α1A = target: T1, adrenergic receptor α1A (Rattus norvegicus, UniProt P43140); test: radioligand binding to adrenergic receptor α1A ([3H] Prazosin)
# T1 construct: membrane species from rat submaxillary glands (rat of Wistar breed) are prepared; from tissue; host or cells: rat (Wistar) submaxillary gland membranes
# T1 sequence (P43140 1-466): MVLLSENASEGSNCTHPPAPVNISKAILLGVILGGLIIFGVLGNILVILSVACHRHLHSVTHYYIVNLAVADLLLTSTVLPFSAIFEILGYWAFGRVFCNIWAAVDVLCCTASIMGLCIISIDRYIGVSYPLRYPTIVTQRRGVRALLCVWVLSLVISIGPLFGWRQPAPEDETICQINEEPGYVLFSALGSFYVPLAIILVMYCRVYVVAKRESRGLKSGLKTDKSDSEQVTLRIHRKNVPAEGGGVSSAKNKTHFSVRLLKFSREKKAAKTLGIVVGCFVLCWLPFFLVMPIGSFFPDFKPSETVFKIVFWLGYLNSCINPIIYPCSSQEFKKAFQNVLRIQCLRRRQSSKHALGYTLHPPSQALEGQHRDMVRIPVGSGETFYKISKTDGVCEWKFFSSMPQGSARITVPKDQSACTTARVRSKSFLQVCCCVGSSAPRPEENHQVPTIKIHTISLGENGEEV
# Experimental: Determination of investigated compounds' binding to α1A receptor was carried out according to the method described in [Michel A D, Loury D N and Whiting R l. Identification of a single α1A-adrenoceptor corresponding to the α1A-subtype in rat submaxillary gland. Br J. Pharmacol. 98:883-889, 1989]. […] Prazosin is used as positive control.
# adrenergic receptor α1B = target: T2, adrenergic receptor α1B (Rattus norvegicus, UniProt P15823); test: radioligand binding to adrenergic receptor α1B ([3H] Prazosin)
# T2 construct: membrane species from rat liver (rat of Wistar breed) are prepared; from tissue; host or cells: rat (Wistar) liver membranes
# T2 sequence (P15823 1-515): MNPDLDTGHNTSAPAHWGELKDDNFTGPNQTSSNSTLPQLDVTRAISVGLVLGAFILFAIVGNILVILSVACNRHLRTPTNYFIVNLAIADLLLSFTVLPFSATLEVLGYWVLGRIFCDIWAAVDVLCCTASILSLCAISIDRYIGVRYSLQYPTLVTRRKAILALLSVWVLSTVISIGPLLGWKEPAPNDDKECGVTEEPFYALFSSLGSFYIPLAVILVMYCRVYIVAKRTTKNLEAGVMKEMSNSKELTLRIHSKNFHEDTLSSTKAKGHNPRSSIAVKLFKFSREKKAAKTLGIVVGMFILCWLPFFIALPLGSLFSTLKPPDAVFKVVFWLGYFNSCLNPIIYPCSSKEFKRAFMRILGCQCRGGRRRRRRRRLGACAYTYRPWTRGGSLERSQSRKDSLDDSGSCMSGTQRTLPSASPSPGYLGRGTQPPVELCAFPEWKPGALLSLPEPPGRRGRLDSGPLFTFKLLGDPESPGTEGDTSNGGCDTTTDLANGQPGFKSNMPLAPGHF
# Description: Species heterogeneity of hepatic α1A-, α1B-, and α1C-subtypes. Biochem Biophys Res Commun. 186:760-7676 1992]. […] Prazosin is used as positive control.
# human α1D receptor = target: T3, human α1D receptor (Homo sapiens, UniProt P25100); test: radioligand binding to adrenergic receptor α1D ([3H] Prazosin)
# T3 construct: expressed in transfected cells; host or cells: HEK-293
# T3 sequence (P25100 1-572): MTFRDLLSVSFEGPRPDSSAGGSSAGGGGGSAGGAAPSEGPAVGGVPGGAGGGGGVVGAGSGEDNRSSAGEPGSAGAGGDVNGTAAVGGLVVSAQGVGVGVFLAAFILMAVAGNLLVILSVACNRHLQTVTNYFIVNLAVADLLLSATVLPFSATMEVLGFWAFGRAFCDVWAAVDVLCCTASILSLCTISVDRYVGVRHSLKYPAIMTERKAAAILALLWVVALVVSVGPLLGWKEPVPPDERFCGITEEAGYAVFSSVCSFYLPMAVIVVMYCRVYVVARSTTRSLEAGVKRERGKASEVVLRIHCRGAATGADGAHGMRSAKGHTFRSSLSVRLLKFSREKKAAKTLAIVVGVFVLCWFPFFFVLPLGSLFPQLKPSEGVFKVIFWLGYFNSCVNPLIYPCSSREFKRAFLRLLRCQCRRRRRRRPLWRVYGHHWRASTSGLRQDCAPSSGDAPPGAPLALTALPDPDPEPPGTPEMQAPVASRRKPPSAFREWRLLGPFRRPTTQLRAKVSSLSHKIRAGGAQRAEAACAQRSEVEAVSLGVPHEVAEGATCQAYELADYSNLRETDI
# Description: 6-C. […] For this purpose sDNA of human α1D receptor is expressed in HEK-293 cells, as it was described in [T L Theroux, T A Esbenshade, R D Peavy and K P Minneman. Coupling efficiencies of human alpha 1-adrenergic receptor subtypes: titration of receptor density and responsiveness with inducible and repressible expression vectors. Mol. Pharmacol.; 50: 1376-1387, 1996]. […] Prazosin is used as positive control.
# human α2A receptor = target: T4, human α2A receptor (Homo sapiens, UniProt P08913); test: radioligand binding to adrenergic receptor α2A ([3H] MK-912)
# T4 construct: expressed in transfected cells; host or cells: Sf9
# T4 sequence (P08913 1-465): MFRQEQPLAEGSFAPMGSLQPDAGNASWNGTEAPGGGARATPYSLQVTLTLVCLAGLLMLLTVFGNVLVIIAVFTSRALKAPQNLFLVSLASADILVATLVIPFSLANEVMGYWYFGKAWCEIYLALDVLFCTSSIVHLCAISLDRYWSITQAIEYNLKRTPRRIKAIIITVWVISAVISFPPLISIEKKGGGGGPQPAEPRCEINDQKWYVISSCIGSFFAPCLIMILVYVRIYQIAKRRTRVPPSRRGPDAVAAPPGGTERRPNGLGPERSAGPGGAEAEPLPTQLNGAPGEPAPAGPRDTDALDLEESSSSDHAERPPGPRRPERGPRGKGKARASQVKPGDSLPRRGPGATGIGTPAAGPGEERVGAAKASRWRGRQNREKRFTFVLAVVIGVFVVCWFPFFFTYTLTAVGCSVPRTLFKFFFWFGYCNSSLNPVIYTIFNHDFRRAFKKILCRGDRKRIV
# Description: J Pharmacol ExpTher. […] Yohimbine is used as positive control.
# human D1 receptor = target: T5, human D1 receptor (Homo sapiens, UniProt P21728); test: radioligand binding to dopamine receptor D1 ([3H] SCH-23390)
# T5 construct: expressed in transfected cells; host or cells: CHO
# T5 sequence (P21728 whole entry): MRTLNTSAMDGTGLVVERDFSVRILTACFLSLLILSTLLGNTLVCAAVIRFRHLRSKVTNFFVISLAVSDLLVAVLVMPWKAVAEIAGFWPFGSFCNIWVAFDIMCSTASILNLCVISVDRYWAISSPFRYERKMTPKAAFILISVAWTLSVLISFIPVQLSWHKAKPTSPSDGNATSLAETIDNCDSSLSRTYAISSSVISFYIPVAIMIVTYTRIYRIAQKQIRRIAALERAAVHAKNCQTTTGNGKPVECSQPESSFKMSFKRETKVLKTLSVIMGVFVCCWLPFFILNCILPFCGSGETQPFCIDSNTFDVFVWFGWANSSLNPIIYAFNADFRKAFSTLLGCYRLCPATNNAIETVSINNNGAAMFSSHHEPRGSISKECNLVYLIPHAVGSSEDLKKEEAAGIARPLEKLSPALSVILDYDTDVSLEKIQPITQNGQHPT
# Description: For this purpose sDNA of human D1 receptor is expressed in CHO cells, as it was described in [Dearry A, Gingrich J A, Falardeau P, Fremeau R T Jr, Bates M D and Caron M G. Molecular cloning and expression of the gene for a human D1 dopamine receptor. Nature. […] Nature.
# human D2S receptor = target: T6, human D2S receptor (Homo sapiens, UniProt P14416); test: radioligand binding to dopamine receptor D2S ([3H] Spiperone)
# T6 construct: expressed in transfected cells; host or cells: CHO
# T6 sequence (P14416 1-414 isoform P14416-2): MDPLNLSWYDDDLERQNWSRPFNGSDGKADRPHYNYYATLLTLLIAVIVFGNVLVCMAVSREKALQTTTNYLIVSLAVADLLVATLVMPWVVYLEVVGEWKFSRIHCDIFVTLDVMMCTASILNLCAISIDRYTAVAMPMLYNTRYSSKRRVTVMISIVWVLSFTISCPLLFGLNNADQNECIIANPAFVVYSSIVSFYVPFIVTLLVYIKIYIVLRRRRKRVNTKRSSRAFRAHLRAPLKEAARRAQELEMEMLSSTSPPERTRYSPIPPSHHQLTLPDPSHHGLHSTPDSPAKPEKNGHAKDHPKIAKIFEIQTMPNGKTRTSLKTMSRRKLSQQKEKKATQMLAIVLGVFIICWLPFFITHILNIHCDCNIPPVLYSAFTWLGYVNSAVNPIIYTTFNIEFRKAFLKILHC
# Description: 7-C. […] For this purpose sDNA of human D2S receptor is expressed in CHO cells, as described in [Hayes G, Biden T J, Selbie L A and Shine J, Structural subtypes of the dopamine D2 receptor are functionally distinct. […] Mol. Endocrinol. […] Mol. Endocrinol. […] Spiperone is used as positive control.
# human H1 receptor = target: T7, human H1 receptor (Homo sapiens, UniProt P35367); test: radioligand binding to histamine receptor H1 ([3H] Pyrilamine)
# T7 construct: expressed in transfected cells; host or cells: CHO-K1
# T7 sequence (P35367 whole entry): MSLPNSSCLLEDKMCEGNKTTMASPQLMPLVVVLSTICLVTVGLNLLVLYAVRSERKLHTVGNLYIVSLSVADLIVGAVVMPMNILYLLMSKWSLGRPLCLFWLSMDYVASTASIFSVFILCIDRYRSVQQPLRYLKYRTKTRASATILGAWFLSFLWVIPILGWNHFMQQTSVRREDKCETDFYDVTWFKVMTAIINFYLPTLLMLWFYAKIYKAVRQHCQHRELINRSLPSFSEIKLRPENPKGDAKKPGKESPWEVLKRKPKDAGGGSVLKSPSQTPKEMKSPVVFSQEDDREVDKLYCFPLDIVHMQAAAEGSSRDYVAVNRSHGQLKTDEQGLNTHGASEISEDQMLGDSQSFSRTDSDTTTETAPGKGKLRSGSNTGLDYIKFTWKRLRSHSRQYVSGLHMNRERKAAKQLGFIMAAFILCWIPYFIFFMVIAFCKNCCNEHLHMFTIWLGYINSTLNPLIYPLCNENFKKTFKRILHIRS
# Description: Biochem Biophys Res Comm. 197(3): 1601-1608, 1993]. […] Biochem Biophys Res Comm. 197(3): 1601-1608, 1993].
# Pyrilamine is used as positive control.
# imidazoline receptor I2 = test: radioligand binding to imidazoline receptor I2 ([3H] Idazoxan); design: species or system rat; settings: 10 μM ligand
# Experimental: Determination of investigated compounds' binding to imidazoline I2 receptor is carried out according to the method described in [Brown C M, MacKinnon A C, McGrath J C, Spedding M and Kilpatrick A T, a2-Adrenoceptor subtypes and imidazoline-like binding in the rat brain. Br J. Pharmacol. 99:803-809, 1990]. […] Idazoxan is used as positive control.
# mice = test: Mice Training in Morris Water Maze (Scopolamine); assay type: in vivo; settings: unitary introduction of active ingredient
# Experimental: Mice Training in Morris Water Maze. A round pool which was filled with water at 20-22° C. was used. A round ceramic platform of 14 cm height was placed in the pool. Animals's behavior was registered with automated computer videosystem in combination with software package of movement analysis Any-maze (Stoelting Co., US). Before testing mice suitable for training were selected. That was done by placing the platform 1 cm above the water level and putting an animal on the platform for 20 seconds. Then the mouse was sunk into the water on the opposite side of the pool, allowed to find the platform and climbed it within 60 seconds, where it was left for additional 20 seconds. After that the mouse was repeatedly immersed into water on the opposite side of the pool and allowed to look for platform. If it failed in finding the platform within 60 seconds the experimentator helped it to find the platform and climb it. If the mice could not find the platform itself in two consecutive attempts it was excluded from experiment.
# During the next two days the platform was placed 0.5 centimeter lower the water level. Every day the mice were given four attempts for finding the platform within 60 seconds. The time interval between the attempts was 20 seconds, during which the mice stayed on the platform. Every day before the first attempt mouse was placed on the platform for 20 seconds. The time needed for finding and climbing the platform was registered. The animals were sunk in water in 3 different places on the side of the pool opposite to platform. On each day of two-day testing 35-40 minutes before the beginning of training the mice were injected intraintestinally with physiological solution, Scopolamine or Scopolamine in combination with investigated compound. At least 8 animals were used in each group.
# On the third day the platform was removed and each animal was placed one time in the pool for a period of 60 seconds. The time each mouse spent in the area where the platform had been located during the previous days was registered. This time interval was regarded as a measure of effectiveness of training fulfilled during the previous two days. The testing was carried out during the day time in isolated laboratory using “white noise” at level of about 70 decibel above the human hearing threshold.
structure (smiles),measurement,setting,value
Cc1ccc2c(c1)c1c(n2CCc2ccc(C)nc2)CCN(C)C1.Cl.Cl [1.1.2(4-2)•2HCl],IC50,adrenergic receptor α1A,136 nM
same,Ki,adrenergic receptor α1A,55 nM
same,nH α1A,adrenergic receptor α1A,1.12
same,IC50,adrenergic receptor α1B,87 nM
same,Ki,adrenergic receptor α1B,48 nM
same,nH α1B,adrenergic receptor α1B,1.54
same,IC50,human α1D receptor,239 nM
same,Ki,human α1D receptor,118 nM
same,IC50,human α2A receptor,286 nM
same,Ki,human α2A receptor,107 nM
same,nH α2A,human α2A receptor,0.828
same,IC50,human D1 receptor,4410 nM
same,IC50,human D2S receptor,1750 nM
same,nH D2S,human D2S receptor,0.724
same,IC50,human H1 receptor,4.28 nM
same,Ki,human H1 receptor,1.6 nM
same,nH H1,human H1 receptor,1.01
same,imidazoline I2 receptor % inhibition,imidazoline receptor I2,98%
Cc1ccc2c(c1)c1c(n2CCc2ccncc2)CCCN(C)C1.Cl.Cl [1.2.2(5-3)•2HCl],memory disorders caused by Scopolamine in Morris water maze,mice,decreasing memory disorders coused by Scopalomine
